Results from US4788209A, “Antifungal 2-anilinothiazolines” (Merrell Dow Pharmaceuticals Inc., priority 1987, dated 1988).
≈ marks a conversion by molar mass, not a printed value. Read-outs that look alike come from different tables or passages of the source.

Legend:
[1] = system: Candida albicans; assay: Minimal inhibitory concentration against yeasts (Mycophil agar, Steers-Foltz apparatus); format: cell-based; conditions: 24 hours at 37° C.
Method: (§1) The compounds of the present invention show activity against pathogenic fungi in vitro and in vivo. The activity of N-(4-hexylphenyl)-4,5-dihydro-2-thiazolamine against various yeast fungi commonly responsible for diseases of humans and animals is illustrated in Table I.
(§2) The compound was prepared in 20 ml aliquots of Mycophil agar at concentrations of 1.5 μM to 250 μM. The agar surfaces were innoculated with approximately 1×10^5 yeast cells/ml using a Steers-Foltz apparatus. The plates were incubated for 24 hours at 37° C. and examined for yeast growth. The minimal inhibitory concentration (MIC) is reported as the lowest concentration of compound that inhibited growth.

[2] = system: Candida parapsilosis; assay: as above; format: cell-based; conditions: Lodderomyces parapsilosis; 24 hours at 37° C.
Method: as §1, §2

[3] = system: Candida pseudotropicalis; assay: as above; format: cell-based; conditions: Kluyveromyces marxianus; 24 hours at 37° C.
Method: as §1, §2

[4] = system: Candida tropicalis; assay: as above; format: cell-based; conditions: 24 hours at 37° C.
Method: as §1, §2

[5] = system: Torulopsis glabrata; assay: as above; format: cell-based; conditions: Nakaseomyces glabratus; 24 hours at 37° C.
Method: as §1, §2

[6] = system: Candida albicans; assay: Single dose therapy of rat vaginitis (vaginal candidiasis) induced by two challenge levels; format: in vivo; conditions: 0.2 ml of 10% solution intravaginally, 24 hours after treatment
Method: To compare the activity of N-(4-hexylphenyl)-4,5-dihydro-2-thiazolamine with that of the well established antifungal agents miconazole and Clotrimazole, vaginal candidiasis was induced in rats.
Groups of 6 female, ovariectomized rats, 180-200 gram weight, were pretreated for 2 successive days with 0.5 mg of progesterone and 0.5 mg of estradiol administered subcutaneously to induce oestrus. Forty-eight hours later rats were infected intravaginally on 2 successive days with Candida albicans cells. Challenge levels of 1×10^7 and 1×10^6 cells were employed. Seventy-two hours after infection, the rats were treated topically (intravaginally) with 0.2 ml of a 10% solution of test compound in a vehicle consisting of the following: cetyl alcohol, 3.5 gm; glycerol monostearate polyethyleneglycol 100, 4.0 gm; diglycol stearate, 3.0 gm; polyethyleneglycol 400, 18.75 gm; and purified water, 18.75 gm.
Twenty-four hours after treatment, vaginal washings were collected, diluted and mixed with Mycosel agar in petri dishes. The dishes were incubated for 48 hours and colonies were counted to determine the surviving number of yeast cells per vaginal washing.

| Structure (SMILES) | MIC ([1]; Candida albicans, strain 1, read-out: MIC) [µg/mL] | MIC ([1]; strain 8) [µg/mL] | MIC ([1]; strain 10) [µg/mL] | MIC ([1]; strain 14) [µg/mL] | MIC ([1]; strain 16) [µg/mL] | MIC [2] [µg/mL] | MIC [3] [µg/mL] | MIC ([4]; Candida tropicalis, strain 4, read-out: MIC) [µg/mL] | MIC ([4]; strain 20) [µg/mL] | MIC [5] [µg/mL] | % Killed ([6]; challenge 1 × 10^6 cells) [%] | Cells/ml Lavage ([6]; challenge 1 × 10^6 cells) | % Killed ([6]; challenge 1 × 10^7 cells) [%] | Cells/ml Lavage ([6]; challenge 1 × 10^7 cells) |
| --- | --- | --- | --- | --- | --- | --- | --- | --- | --- | --- | --- | --- | --- | --- |
| CCCCCCc1ccc(NC2=NCCS2)cc1 [N-(4-Hexylphenyl)-4,5-dihydro-2-thiazolamine] | 8 (≈ 30.5 µM) | 8 (≈ 30.5 µM) | 8 (≈ 30.5 µM) | 8 (≈ 30.5 µM) | 8 (≈ 30.5 µM) | 4 (≈ 15.2 µM) | 2 (≈ 7.62 µM) | 8 (≈ 30.5 µM) | 8 (≈ 30.5 µM) | 8 (≈ 30.5 µM) | 97 | 2 × 10^3 Cells/ml | 98 | 5 × 10^3 Cells/ml |
| Clc1ccccc1C(c1ccccc1)(c1ccccc1)n1ccnc1 [Clotrimazole] | – | – | – | – | – | – | – | – | – | – | 83 | 1 × 10^4 Cells/ml | 75 | 5 × 10^4 Cells/ml |
| Clc1ccc(COC(Cn2ccnc2)c2ccc(Cl)cc2Cl)c(Cl)c1 (stereo not shown) [Miconazole, miconazole] | – | – | – | – | – | – | – | – | – | – | 88 | 7 × 10^3 Cells/ml | 90 | 2 × 10^4 Cells/ml |
